Assay results reported in US6392085B1, “Therapeutic nucleosides” (SmithKline Beecham Corporation, priority 1992, dated 2002).
Read-outs that look alike come from different tables or passages of the source.

Experiments:
[1] = system: human bon marrow progenitor cells (BFU-E); assay: Toxicity in human bone marrow progenitor cells in vitro, BFU-E; format: cell-based; conditions: 50% inhibition of bone marrow progenitor cells; three assays, marrow from three donors
Method: (§1) Compounds of formula (I) were tested fortoxicity in human bon marrow progenitor cells, in vitro, by the method of Dornsife, R. E. et at., 1991, Antimicrob. Agents Chemother., 35: 322-328. Three separate assays were performed using marrow from three different donors.

[2] = system: Human cytomegalovirus (HCMV); assay: Anti-HCMV plaque reduction assay in monolayers of MRCS cells (human embryonic lung); format: cell-based; conditions: Human betaherpesvirus 5, 50% inhibitory concentration estimated from dose-response curve
Method: Human cytomegalovirus (HCMV) is assayed in monolayers of MRCS cells (human embryonic lung) in multiwell trays. Activity of compounds is determined in the plaque reduction assay, in which a cell monolayer is infected with a suspension of HCMV. A range of concentrations of the compound to be tested (of known moiarity) is then incorporated into the carboxymethyl cellulose overlay. Plaque numbers of each concentration are expressed as percentage of the control and a dose-response curve is drawn. From this curve the 50% inhibitory concentration (IC50) is estimated.

[3] = system: human bon marrow progenitor cells (CFU-GM); assay: Toxicity in human bone marrow progenitor cells in vitro, CFU-GM; format: cell-based
Method: as §1

[4] = system: hepatitis B viral replication; conditions: Proc. Natl. Acad. Sci. USA 1989, 86, 8541-8544; cited from earlier work
[5] = system: herpes simplex virus type 1 (HSV-1); conditions: J. Med. Chem. 1987, 30, 746-749; Biochem. Pharmacol. 1990, 40, 1515-1522; especially the (+)-enantiomer; cited from earlier work
[6] = 50% inhibition of bone marrow progenitor cells, three assays, marrow from three donors

Row | Structure (SMILES) | Cell Toxicity I50 BFU-E [1] | IC50 [2] | Cell Toxicity I50 CFU-GM [3, 6] | melting point | inhibition of hepatitis B viral replication [4] | activity against HSV-1 [5] | Cell Toxicity I50 CFU-GM [3]
1 | Nc1nc(NCC2CC2)c2ncn([C@@H]3C[C@H](CO)[C@@H](O)C3)c2n1 (racemic) [Ex. 22, (±) (1S, 2R, 4R)-4-[2-Amino-6-(cyclopropylmethylamino)-9H-purin-9-yl]-2-(hydroxymethyl)-1-cyclopentanol] | >>50 μM | 3.1 µM | 34 ± 14 µM | – | – | – | –
2 | Nc1nc(NC2CC2)c2ncn([C@@H]3C[C@H](CO)[C@@H](O)C3)c2n1 (stereo in doubt) [Ex. 23, (±)-(1S, 2R, 4R)-4-[2-Amino-6-(cyclopropylamino)-9H-purin-9-yl]-2-(hydroxymethyl)-1-cyclopentanol] | 55 ± 15 µM | 2.8 µM | 14 ± 1 µM | 174 to 176 °C | – | – | –
3 | Cl.Cl.Nc1nc(NC2CC2)c2ncn([C@H]3C[C@@H](CO)[C@H](O)C3)c2n1 (stereo in doubt) | – | – | – | > 250 °C | – | – | –
4 | Nc1nc2c(ncn2[C@@H]2C[C@H](CO)[C@@H](O)C2)c(=O)[nH]1 (relative stereo) [2′-CDG, (1R*, 3S*, 4R)-2-amino-1,9-dihydro-9-[3-hydroxy-4-hydroxymethyl)cyclopentyl]-6H-purine-6-one, reference compound] | 4 ± 2 µM | – | – | – | inhibits hepatitis B viral replication | active against herpes simplex virus type 1 | 0.4 ± 0.3 µM
5 | Nc1nc(OC2CCCC2)c2ncn([C@@H]3C[C@H](CO)[C@@H](O)C3)c2n1 (racemic) [Example 28, (±)-(1S, 2R, 4R)-4-(2-Amino-6-(cyclopentyloxy)-9H-purin-9-yl)-2-(hydroxymethyl)-1-cyclopentanol] | – | – | – | 181 to 182 °C | – | – | –
